Source: ChEMBL document CHEMBL1146284, “Antitumor activity of the marine natural product dibromophakellstatin in vitro” (Bioorg Med Chem Lett, 2007)

Tests used:
Format in all cases: functional, cell-based
[1] = Antiproliferative activity against human MEXF 394NL cells
[2] = Antiproliferative activity against human OVXF 899L cells
[3] = test system: SF-268; experiment: Antiproliferative activity against human SF268 cells
[4] = Antiproliferative activity against human CNXF 498NL cells
[5] = Antiproliferative activity against human LXF 529L cells
[6] = Antiproliferative activity against human LXF 629L cells
[7] = test system: NCI-H460; experiment: Antiproliferative activity against human H460 cells
[8] = Antiproliferative activity against human MAXF 401NL cells
[9] = test system: MCF7; experiment: Antiproliferative activity against human MCF7 cells
[10] = Antiproliferative activity against human MEXF 276L cells; conditions: MEXF276L
[11] = Antiproliferative activity against human MEXF 462NL cells
[12] = Antiproliferative activity against human MEXF 514NL cells
[13] = Antiproliferative activity against human MEXF 520L cells
[14] = Antiproliferative activity against human OVXF 1619L cells
[15] = Antiproliferative activity against human BXF 1218L cells
[16] = test system: T-24; experiment: Antiproliferative activity against human T24 cells
[17] = test system: HCT-116; experiment: Antiproliferative activity against human HCT116 cells
[18] = test system: HT-29; experiment: Antiproliferative activity against human HT29 cells
[19] = Antiproliferative activity against human GXF 251L cells
[20] = Antiproliferative activity against human HNXF 536L cells
[21] = Antiproliferative activity against human LXF 1121L cells
[22] = Antiproliferative activity against human LXF 289L cells
[23] = Antiproliferative activity against human LXF 526L cells
[24] = test system: OVCAR-3; experiment: Antiproliferative activity against human OVCAR-3 cells
[25] = Antiproliferative activity against human PAXF 1675L cells
[26] = test system: PANC-1; experiment: Antiproliferative activity against human PANC1 cells
[27] = test system: CWR22R; experiment: Antiproliferative activity against human 22RV1 cells
[28] = test system: DU-145; experiment: Antiproliferative activity against human DU145 cells
[29] = test system: LNCaP; experiment: Antiproliferative activity against human LNCAP cells
[30] = Antiproliferative activity against human PC3M cells; conditions: PC-3M
[31] = Antiproliferative activity against human PXF 1752L cells
[32] = Antiproliferative activity against human RXF 1781L cells
[33] = Antiproliferative activity against human RXF 393NL cells
[34] = Antiproliferative activity against human RXF 486NL cells […]
[35] = Antiproliferative activity against human RXF 944NL cells
[36] = Antiproliferative activity against human UXF 1138L cells

SMILES: O=C1N[C@H]2n3c(cc(Br)c3Br)C(=O)N3CCC[C@]23N1
- IC50 ([1]; mexf 394nl): > 10 µM
- IC50 ([2]; ovxf 899l): > 10 µM
- IC50 ([3]; sf-268): > 10 µM
- IC50 ([4]; cnxf 498nl): > 10 µM
- IC50 ([5]; lxf 529l): > 10 µM

SMILES: O=C1NC2n3c(cc(Br)c3Br)C(=O)N3CCCC23N1 (racemic)
- IC50 [6]: > 10 µM
- IC50 [7]: > 10 µM
- IC50 [8]: > 10 µM
- IC50 [9]: > 10 µM
- IC50 [10]: > 10 µM
- IC50 ([1]; Homo sapiens, MEXF 394NL): 1.37 µM
- IC50 [11]: > 10 µM
- IC50 [12]: 4.41 µM
- IC50 [13]: > 10 µM
- IC50 [14]: 2.23 µM
- IC50 ([2]; Homo sapiens, OVXF 899L): 0.6 µM
- IC50 [15]: > 10 µM
- IC50 [16]: > 10 µM
- IC50 ([3]; Homo sapiens, SF-268): 2.28 µM
- IC50 [17]: > 10 µM
- IC50 [18]: > 10 µM
- IC50 [19]: > 10 µM
- IC50 ([4]; Homo sapiens, CNXF 498NL): 0.93 µM
- IC50 [20]: > 10 µM
- IC50 [21]: > 10 µM
- IC50 [22]: > 10 µM
- IC50 [23]: > 10 µM
- IC50 ([5]; Homo sapiens, LXF 529L): 0.96 µM
- IC50 [24]: > 10 µM
- IC50 [25]: > 10 µM
- IC50 [26]: 4.06 µM
- IC50 [27]: > 10 µM
- IC50 [28]: > 10 µM
- IC50 [29]: > 10 µM
- IC50 [30]: 2.42 µM
- IC50 [31]: > 10 µM
- IC50 [32]: > 10 µM
- IC50 [33]: > 10 µM
- IC50 [34]: > 10 µM
- IC50 [35]: > 10 µM
- IC50 [36]: 1.21 µM

SMILES: O=C1c2cc(Br)c(Br)n2C2C(Cl)(Cl)C23CCCN13 (racemic)
- IC50 ([1]; Homo sapiens, MEXF 394NL): 7.87 µM
- IC50 ([2]; Homo sapiens, OVXF 899L): 5.37 µM
- IC50 ([3]; Homo sapiens, SF-268): 3.91 µM
- IC50 ([4]; Homo sapiens, CNXF 498NL): 5.84 µM
- IC50 ([5]; Homo sapiens, LXF 529L): 9.84 µM

SMILES: CCOC(=O)N1C(=O)N(OS(=O)(=O)c2ccc(C)cc2)C23CCCN2C(=O)c2cc(Br)c(Br)n2C13 (racemic)
- IC50 [6]: 6.52 µM
- IC50 [7]: > 10 µM
- IC50 [8]: 8.16 µM
- IC50 [9]: > 10 µM
- IC50 [10]: 9.44 µM
- IC50 ([1]; Homo sapiens, MEXF 394NL): 4.02 µM
- IC50 [11]: > 10 µM
- IC50 [12]: > 10 µM
- IC50 [13]: > 10 µM
- IC50 [14]: 4.83 µM
- IC50 ([2]; Homo sapiens, OVXF 899L): 8.89 µM
- IC50 [15]: 7.42 µM
- IC50 [16]: 9.98 µM
- IC50 ([3]; Homo sapiens, SF-268): 6.45 µM
- IC50 [17]: > 10 µM
- IC50 [18]: > 10 µM
- IC50 [19]: > 10 µM
- IC50 ([4]; Homo sapiens, CNXF 498NL): > 10 µM
- IC50 [20]: 7.24 µM
- IC50 [21]: > 10 µM
- IC50 [22]: > 10 µM
- IC50 [23]: 7.96 µM
- IC50 ([5]; Homo sapiens, LXF 529L): > 10 µM
- IC50 [24]: > 10 µM
- IC50 [25]: > 10 µM
- IC50 [26]: 5 µM
- IC50 [27]: > 5.92 µM
- IC50 [28]: > 10 µM
- IC50 [29]: > 10 µM
- IC50 [30]: 8.6 µM
- IC50 [31]: > 10 µM
- IC50 [32]: > 10 µM
- IC50 [33]: > 10 µM
- IC50 [34]: > 10 µM
- IC50 [35]: 6.3 µM
- IC50 [36]: 8.96 µM

SMILES: CN1C(=O)c2cc(Br)c(Br)n2C2C1C2(Cl)Cl (racemic)
- IC50 ([1]; Homo sapiens, MEXF 394NL): 1.35 µM
- IC50 ([2]; Homo sapiens, OVXF 899L): > 10 µM
- IC50 ([3]; Homo sapiens, SF-268): > 10 µM
- IC50 ([4]; Homo sapiens, CNXF 498NL): > 10 µM
- IC50 ([5]; Homo sapiens, LXF 529L): > 10 µM

SMILES: O=C1N[C@H]2n3c(cc(Br)c3Br)C(=O)N3CCC[C@]23N1 [DIBROMOPHAKELLSTATIN]
- IC50 ([1]; mexf 394nl): 1.35 µM
- IC50 ([2]; ovxf 899l): 0.05 µM
- IC50 ([3]; sf-268): 0.55 µM
- IC50 ([4]; cnxf 498nl): 0.72 µM
- IC50 ([5]; lxf 529l): 1.62 µM
